In PubChem BioAssay AID328 (DTP/NCI, 2004) one finds T/C data, which are given here for 17 compounds.

This test deals with BDF1 mice, P388 leukemia ip, median survival T/C. The test can be described thus: NCI In Vivo Anticancer Drug Screen. Data for tumor model P388 Leukemia (intraperitoneal) in B6D2F1 (BDF1) mice. As to conditions: endpoint: median survival time, higher = longer survival. An outline of the steps: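 Mice carrying the transplantable tumour receive compound or vehicle. Survival is followed in each arm, and the treated measure is divided by the vehicle measure.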

[1] abbreviates: dose: 50.0 mg/kg/injection, schedule: Q01DX009 (ip), vehicle: saline with Tween-80.
Setting [2] is: dose: 100.0 mg/kg/injection, schedule: Q01DX009 (ip), vehicle: saline with Tween-80.
[3] abbreviates: dose: 200.0 mg/kg/injection, schedule: Q01DX009 (ip), vehicle: saline with Tween-80.
Setting [4] is: dose: 50.0 mg/kg/injection, schedule: Q01DX009 (ip), vehicle: Klucel (hydroxypropylcellulose) (HPC).
[5] abbreviates: dose: 100.0 mg/kg/injection, schedule: Q01DX009 (ip), vehicle: Klucel (hydroxypropylcellulose) (HPC).
The mark [6] stands for this setting: dose: 100.0 mg/kg/injection, schedule: Q04DX003 (ip), vehicle: saline.
[7] abbreviates: dose: 100.0 mg/kg/injection, schedule: Q01DX009 (ip), vehicle: saline.
The mark [8] stands for this setting: dose: 200.0 mg/kg/injection, schedule: Q01DX009 (ip), vehicle: saline.
Where [9] appears, read: dose: 50.0 mg/kg/injection, schedule: Q01DX009 (ip), vehicle: saline.
[10] abbreviates: dose: 50.0 mg/kg/injection, schedule: Q04DX003 (ip), vehicle: Klucel (hydroxypropylcellulose) (HPC).
The mark [11] stands for this setting: dose: 100.0 mg/kg/injection, schedule: Q04DX003 (ip), vehicle: Klucel (hydroxypropylcellulose) (HPC).
Where [12] appears, read: dose: 200.0 mg/kg/injection, schedule: Q04DX003 (ip), vehicle: Klucel (hydroxypropylcellulose) (HPC).
The mark [13] stands for this setting: dose: 400.0 mg/kg/injection, schedule: Q01DX009 (ip), vehicle: Klucel (hydroxypropylcellulose) (HPC).
Where [14] appears, read: dose: 37.5 mg/kg/injection, schedule: Q01DX009 (ip), vehicle: saline with Tween-80.
Where [15] appears, read: dose: 400.0 mg/kg/injection, schedule: Q01DX009 (ip), vehicle: saline with Tween-80.
[16] abbreviates: dose: 25.0 mg/kg/injection, schedule: Q01DX010 (ip), vehicle: saline.
Where [17] appears, read: dose: 50.0 mg/kg/injection, schedule: Q01DX010 (ip), vehicle: saline.

Molecules are shown by their SMILES. “And” between values parts separate entries of the source, which are not always exact repeats. Equal entries are not always repeated. Inconclusive results and toxic doses are left out.

Take `CCC(C)C(=O)/C=C/c1ccccc1` (stereo not drawn): the T/C reads like this: under setting [1], 96 % of control; under setting [2], 107 % of control; under setting [3], 114 % of control.

As to `CSc1ncnc2c1ncn2C1CCCO1` (stereo not drawn), the T/C is, setting by setting: (dose: 25.0 mg/kg/injection, schedule: Q01DX009 (ip), vehicle: Klucel (hydroxypropylcellulose) (HPC)) 95 % of control; under setting [4], 119 % of control; under setting [5], 109 % of control; under setting [6], 104 % of control; (dose: 150.0 mg/kg/injection, schedule: Q01DX009 (ip), vehicle: Klucel (hydroxypropylcellulose) (HPC)) 87 % of control.

On to `COc1cc2c(cc1OC)-c1cc3cc(OC)c(OC)cc3c(CCC(=O)O)[n+]1CC2` (tested in a mixture with another compound), for which the T/C under setting [7] is 106 % of control; the T/C under setting [8] is 92 % of control; the T/C (dose: 400.0 mg/kg/injection, schedule: Q01DX009 (ip), vehicle: saline) was 90 % of control.

With `CC(C)=CCC/C(C)=C/CN1C(=O)C=CC1=O`, the T/C runs as follows: (dose: 0.39 mg/kg/injection, schedule: Q01DX009 (ip), vehicle: water) 94 % of control; (dose: 0.78 mg/kg/injection, schedule: Q01DX009 (ip), vehicle: water) 100 % of control; (dose: 1.56 mg/kg/injection, schedule: Q01DX009 (ip), vehicle: water) 112 % of control; (dose: 3.12 mg/kg/injection, schedule: Q01DX009 (ip), vehicle: water) 112 % of control; (dose: 6.25 mg/kg/injection, schedule: Q01DX009 (ip), vehicle: water) 111 % of control; (dose: 12.5 mg/kg/injection, schedule: Q01DX009 (ip), vehicle: water) 89 % of control.

For the compound `Cc1ccccc1OS(=O)(=O)C(F)(F)C(F)(F)C(F)(F)C(F)(F)F`, the T/C was 100 % of control under setting [9], 100 % of control under setting [7] and 106 % of control under setting [8].

For the compound `CC1(C)C=C(C(Br)c2ccc(Cl)cc2)C(=O)c2ccccc21` (stereo not drawn), the T/C was 100 % of control under setting [4]; 100 % of control under setting [10]; 100 % of control and 105 % of control under setting [5]; 160 % of control under setting [7]; 90 % of control under setting [11]; 100 % of control under setting [12]. The T/C under setting [13] is 95 % of control.

`CN1CCN(c2nc3ccccc3n3nnnc23)CC1`: the T/C (dose: 18.75 mg/kg/injection, schedule: Q01DX009 (ip), vehicle: saline with Tween-80) is 103 % of control and the T/C under setting [14] was 100 % of control.

Regarding `Cc1cc(=O)[nH]o1`, the T/C was 108 % of control under setting [1], 103 % of control under setting [2], 103 % of control under setting [3] and 113 % of control under setting [15].

For the compound `CCCCCCC(=O)/C=C/c1ccc(Cl)cc1`, the T/C under setting [2] was 90 % of control, the T/C under setting [3] was 91 % of control and the T/C under setting [15] is 100 % of control.

On to `c1nnc(NCNc2nncs2)s1`, for which the T/C (dose: 12.0 mg/kg/injection, schedule: Q04DX003 (ip), vehicle: saline) was 100 % of control; the T/C (dose: 12.5 mg/kg/injection, schedule: Q01DX010 (ip), vehicle: saline) is 204 % of control; the T/C (dose: 19.0 mg/kg/injection, schedule: Q04DX003 (ip), vehicle: saline) was 118 % of control; the T/C under setting [16] is 227 % of control; the T/C (dose: 29.0 mg/kg/injection, schedule: Q04DX003 (ip), vehicle: saline) was 186 % of control; the T/C (dose: 45.0 mg/kg/injection, schedule: Q04DX003 (ip), vehicle: saline) is 177 % of control. The T/C reads like this: under setting [9], 100 % of control; under setting [17], 90 % of control; (dose: 50.0 mg/kg/injection, schedule: Q04DX003 (ip), vehicle: saline) 190 % of control; (dose: 66.0 mg/kg/injection, schedule: Q04DX003 (ip), vehicle: saline) 150 % of control and 195 % of control; under setting [7], 100 % of control; under setting [6], 227 % of control and 235 % of control and 195 % of control. Further, the T/C (dose: 150.0 mg/kg/injection, schedule: Q04DX003 (ip), vehicle: saline) was 210 % of control and 213 % of control.

For the compound `COc1cc(C=NCCN=Cc2cc(OC)c(OC)c(OC)c2)cc(OC)c1OC`, the T/C (dose: 12.5 mg/kg/injection, schedule: Q04DX003 (ip), vehicle: saline with Tween-80) is 111 % of control; the T/C (dose: 25.0 mg/kg/injection, schedule: Q04DX003 (ip), vehicle: saline with Tween-80) is 107 % of control; the T/C (dose: 50.0 mg/kg/injection, schedule: Q04DX003 (ip), vehicle: saline with Tween-80) is 92 % of control; the T/C (dose: 200.0 mg/kg/injection, schedule: Q04DX003 (ip), vehicle: saline with Tween-80) was 95 % of control.

As to `O=C(Nc1ccc(Cl)c(Cl)c1)ON1CCCCC1`, the T/C reads like this: under setting [1], 100 % of control; under setting [2], 100 % of control; under setting [3], 106 % of control.

As for `O=C/C(Cl)=C(/Cl)C(=O)O`, the T/C runs as follows: (dose: 6.25 mg/kg/injection, schedule: Q04DX002 (ip), vehicle: saline with Tween-80) 110 % of control; (dose: 12.5 mg/kg/injection, schedule: Q04DX002 (ip), vehicle: saline with Tween-80) 108 % of control; (dose: 25.0 mg/kg/injection, schedule: Q04DX002 (ip), vehicle: saline with Tween-80) 103 % of control.

With `NC(=S)N/N=C/c1ccc(O)cn1`, the T/C (dose: 18.8 mg/kg/injection, schedule: Q01DX009 (ip), vehicle: saline with Tween-80) is 189 % of control; the T/C (dose: 25.0 mg/kg/injection, schedule: Q01DX001 (ip), vehicle: Klucel (hydroxypropylcellulose) (HPC)) was 100 % of control and 109 % of control; the T/C under setting [16] was 172 % of control; the T/C (dose: 25.0 mg/kg/injection, schedule: Q04DX002 (ip), vehicle: Klucel (hydroxypropylcellulose) (HPC)) was 103 % of control; the T/C (dose: 25.0 mg/kg/injection, schedule: Q04DX003 (ip), vehicle: Klucel (hydroxypropylcellulose) (HPC)) was 122 % of control; the T/C under setting [14] is 219 % of control. Besides, the T/C reads like this: under setting [17], 200 % of control; (dose: 75.0 mg/kg/injection, schedule: Q01DX009 (ip), vehicle: saline with Tween-80) 178 % of control; (dose: 100.0 mg/kg/injection, schedule: Q01DX010 (ip), vehicle: saline) 227 % of control; (dose: 200.0 mg/kg/injection, schedule: Q01DX010 (ip), vehicle: saline) 100 % of control.

With `Nc1nc(F)nc2nc[nH]c12`, the T/C (dose: 10.0 mg/kg/injection, schedule: Q01DX009 (ip), vehicle: Klucel (hydroxypropylcellulose) (HPC)) is 121 % of control and the T/C (dose: 20.0 mg/kg/injection, schedule: Q01DX009 (ip), vehicle: Klucel (hydroxypropylcellulose) (HPC)) is 121 % of control.

Regarding `CCCCCCCCCC[N+](C)(C)CC(O)C[N+](C)(C)CCCCCCCCCC`, the T/C was 91 % of control and 109 % of control (dose: 1.56 mg/kg/injection, schedule: Q01DX009 (ip), vehicle: saline); 104 % of control (dose: 3.12 mg/kg/injection, schedule: Q01DX009 (ip), vehicle: saline); 100 % of control and 108 % of control (dose: 3.13 mg/kg/injection, schedule: Q01DX009 (ip), vehicle: saline); 100 % of control and 109 % of control and 120 % of control (dose: 6.25 mg/kg/injection, schedule: Q01DX009 (ip), vehicle: saline); 107 % of control and 109 % of control and 111 % of control (dose: 12.5 mg/kg/injection, schedule: Q01DX009 (ip), vehicle: saline).

In the case of `CCOC(=O)C(C)C(=O)Cc1cc(OC)c(C)cc1Br` (stereo not drawn), the T/C under setting [10] was 100 % of control; the T/C under setting [5] is 110 % of control; the T/C under setting [11] was 91 % of control; the T/C (dose: 200.0 mg/kg/injection, schedule: Q01DX009 (ip), vehicle: Klucel (hydroxypropylcellulose) (HPC)) is 105 % of control; the T/C under setting [12] was 95 % of control; the T/C under setting [13] is 100 % of control. For the same compound, where the note is “dose: 400.0 mg/kg/injection, schedule: Q04DX003 (ip), vehicle: Klucel (hydroxypropylcellulose) (HPC)”, the T/C is 95 % of control.
